Results published in PMC4919066 (PLoS Pathogens, 2016).

How the values were obtained:
[1] = tested on: HCMV; test: Generation of drug resistant virus; format: cell-based, Human Cytomegalovirus; settings: 5 passages, UL97 sequencing
Protocol: Screening of drug resistant virus was performed as reported. Two million cells were plated on a 6-well plate and infected with HCMV (MOI 0.05). […] The cells were maintained in DMEM with 4% FBS until plaques were observed. The supernatants from these plates were used to infect fresh HFFs in a 6-well plate and each time drug concentration was increased by two fold. […] DNA extracted from supernatants collected at the last stage was used for UL97 sequencing.

[2] = tested on: HCMV; test: Virus entry, pp65 immunofluorescence assay; format: cell-based, Human Cytomegalovirus; settings: emetine 75 nM, GCV 10 μM, CpG 2006 10 μM, added 24 h prior to infection
[3] = tested on: MDM2-IE2; test: Co-immunoprecipitation MDM2-IE2 in transfected HEK293 cells; format: cell-based; settings: IE1/2 transfection, emetine 75 nM or GCV 5 μM for 4 h
Protocol: HEK-293 cells seeded into 10 cm petri dishes were transfected with HCMV plasmid encoding IE1 and IE2 (pRL45), using Lipofectamine 2000 in serum free medium. After 6 h, 10% FBS containing media was added along with 10 μM of MG132. […] Cells were then harvested to prepare lysates for IP.
Non-infected, infected or emetine-treated HFFs were treated with MG132 (10 μM) for 12h. Cells were harvested after 24 hpi and lysed with IP buffer containing 150 mM NaCl, 50mM Tris pH 7.5, 2 mM EDTA, 0.5% TritonX-100 and 0.5% NP-40-40. 1 mg of lysate was precleared with bead slurry for 30 min. The precleared lysates were incubated with anti-MDM2 (2 μg) antibody overnight. The antibody complexes were isolated using protein A/G beads (Santa Cruz), washed three times with 50% IP buffer. The immunoprecipitate-protein A/G beads were boiled in SDS sample buffer, and the supernatant was analyzed on SDS-PAGE gels after immunoblotting as described previously. 1% of the cell lysate used for IP was loaded on gels as ‘Input’. Confirmatory reverse IPs were performed as described in each experiment. Isotype control antibodies included: rabbit IgG polyclonal, mouse IgG2a kappa and mouse IgG2b kappa monoclonal (Abcam). Mouse monoclonal RPS19 antibody (Abcam) served as an additional negative control for the IPs. Densitometry analysis was performed to determine relative ratio of immunoprecipitated protein to its input level.

[4] = tested on: MCMV; test: MCMV plaque reduction assay in MEFs; format: cell-based, mouse CMV; settings: GCV 5 μM, 0.5 and 2 million cells/plate
Protocol: The pp28-luciferase HCMV Towne and a GCV-resistant pp28-luciferase were used. The recombinant viruses express luciferase under the control of the late CMV gene promoter, pp28. Luciferase expression is activated 48–72 hours post infection (hpi). The recombinant viruses provide a highly-sensitive reporter system which correlates with plaque reduction assay. The Towne HCMV strain (ATCC VR-977) was used for plaque reduction, quantitative reverse transcriptase PCR (qRT-PCR), and immunoprecipitation assays. Human herpes virus strains were: luciferase HSV1- KOS/Dlux/oriS [52] and clinical isolates of HSV2. The clinical isolates were provided by the clinical microbiology laboratory with no identifiers that can link to a specific subject. Murid Herpesvirus (MCMV: ATCC VR-1399) was used for infection of mouse embryonic fibroblasts (MEFs) and mice.
Human Foreskin Fibroblasts (HFFs) passage 12–16 (ATCC, CRL-2088) and mouse embryonic fibroblasts (MEFs) passage 9–14 (ATCC, CRL-1658) were grown in Dulbecco's Modified Eagle Medium (DMEM) containing 10% fetal bovine serum (FBS) (Gibco, Carlsbad, CA) in a 5% CO2 incubator at 37°C. Infection with HCMV or HSV was performed in HFFs, and infection with mouse CMV was performed in MEFs. For HCMV, cells were seeded in either a 96-well plate or 100 mm culture plates (Corning Costar, Sigma Aldrich) at 0.5 or 2 million cells /plate. Following 90 minute adsorption, media was removed and cells were washed with PBS. Media containing 4% FBS and compounds were added to each well. Infected treated HFFs were collected at 72 hpi and lysates were assayed for luciferase activity using a luciferase assay kit (Promega, Madison, WI) on GloMax-Multi+ Detection System (Promega). In second cycle assays, supernatants were collected from all conditions of the first cycle at 96 hpi and used for infection of fresh HFFs in 96-well plates. Luciferase activity was measured 72 h following second cycle infection. […] After incubation at 37°C for 10 days (for HCMV), 3 days for MCMV or 2 days (for HSV), the overlay was removed and plaques were counted after crystal violet staining.

[5] = tested on: HCMV Towne; test: HCMV plaque reduction assay in HFFs; format: cell-based, Human Cytomegalovirus; settings: GCV 5 μM, 0.5 and 2 million cells/plate
Protocol: Human Foreskin Fibroblasts (HFFs) passage 12–16 (ATCC, CRL-2088) and mouse embryonic fibroblasts (MEFs) passage 9–14 (ATCC, CRL-1658) were grown in Dulbecco's Modified Eagle Medium (DMEM) containing 10% fetal bovine serum (FBS) (Gibco, Carlsbad, CA) in a 5% CO2 incubator at 37°C. Infection with HCMV or HSV was performed in HFFs, and infection with mouse CMV was performed in MEFs. For HCMV, cells were seeded in either a 96-well plate or 100 mm culture plates (Corning Costar, Sigma Aldrich) at 0.5 or 2 million cells /plate. Following 90 minute adsorption, media was removed and cells were washed with PBS. Media containing 4% FBS and compounds were added to each well. Infected treated HFFs were collected at 72 hpi and lysates were assayed for luciferase activity using a luciferase assay kit (Promega, Madison, WI) on GloMax-Multi+ Detection System (Promega). In second cycle assays, supernatants were collected from all conditions of the first cycle at 96 hpi and used for infection of fresh HFFs in 96-well plates. Luciferase activity was measured 72 h following second cycle infection. For HSV1-KOS/Dlux/oriS, a luciferase assay was performed at 24 hpi. Plaque assays were performed with clinical isolates of HSV2 and HCMV Towne (ATCC VR-977). HFFs were seeded at […] in 12-well plates and infected 24 h later with HSV2 at 200 PFU/well. For HCMV or MCMV, HFFs or MEFs were seeded at 0.5 or 2 million cells /plate in a 12-well plate and infected 24 hours later at 100 PFU/well. Following virus adsorption (60 min and 90 min for HSV and HCMV, respectively), virus was aspirated, and DMEM containing 4% fetal bovine serum (FBS) with (for HSV) or without (for HCMV/MCMV) 0.5% carboxymethyl-cellulose, were added with the compounds at indicated concentrations into triplicate wells. After incubation at 37°C for 10 days (for HCMV), 3 days for MCMV or 2 days (for HSV), the overlay was removed and plaques were counted after crystal violet staining.

SMILES: Nc1nc(O)c2ncn(COC(CO)CO)c2n1 [GCV, Ganciclovir]
- selection of resistant virus with increasing drug concentration [1]: selected for a C607Y mutation in UL97
- inhibition of viral entry [2]: neither emetine nor GCV inhibited viral entry
- interaction between MDM2 and IE2 [3]: had no effect on this interaction
- MCMV inhibition and cell density [4]: inhibited HCMV and MCMV irrespective of cell density
- HCMV inhibition and cell density [5]: inhibited HCMV and MCMV irrespective of cell density
